Reference: patent US8927500B2, “Peptidomimetic macrocycles” (Aileron Therapeutics, Inc., priority 2012, dated 2015)
Where a SMILES comes first, the peptide text is derived from it. Bridges are numbered along the chain shown (N, C = ends). [ ]: non-standard residue; d: D form. R8 = C=CCCCCCC[C@@](C)(N)C(=O)O; Cba = N[C@@H](CC1CCC1)C(=O)O; S5 = C=CCCC[C@](C)(N)C(=O)O

Experiments:
MDM2 = MDM2 (Homo sapiens, UniProt Q00987); assay: Competitive fluorescence polarization assay for MDM2; format: binding; conditions: competitive FP assay, MDM2; for IC50: read-out: IC50 (MDM2); for Ki: read-out: Ki (MDM2)
Chain of MDM2 (Q00987 1-125): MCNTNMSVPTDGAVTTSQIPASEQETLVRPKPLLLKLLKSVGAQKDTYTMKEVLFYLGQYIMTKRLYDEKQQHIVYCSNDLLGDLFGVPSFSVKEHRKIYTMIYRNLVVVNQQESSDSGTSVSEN

MDMX = biological target: T1, MDMX (Homo sapiens, UniProt O15151); assay: Competitive fluorescence polarization assay for MDMX; format: binding; conditions: competitive FP assay; for IC50: read-out: IC50 (MDMX); for Ki: read-out: Ki (MDMX)
T1 sequence (O15151 1-125): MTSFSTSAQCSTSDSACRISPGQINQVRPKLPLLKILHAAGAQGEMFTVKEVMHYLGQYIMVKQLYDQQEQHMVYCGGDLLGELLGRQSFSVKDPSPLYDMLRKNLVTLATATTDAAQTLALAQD
Experimental: Dilute MDMX (In-house, 40 kD) into FP buffer (High salt buffer-200 mM Nacl, 5 mM CHAPS, pH 7.5.) to make 300 nM (2×) working stock solution. • 2. […] Dilute 1 mM (in 100% DMSO) of FAM labeled linear peptide with DMSO to 100 μM (dilution 1:10). Then, dilute from 100 μM to 10 μM with water (dilution 1:10) and then dilute with FP buffer from 10 μM to 40 nM (dilution 1:250). This is the working solution which will be a 10 nM concentration in well (dilution 1:4). Keep the diluted FAM labeled peptide in the dark until use. • 4. […] Dilute 10 mM (in 100% DMSO) with DMSO to 5 mM (dilution 1:2). Then, dilute from 5 mM to 500 μM with H2O (dilution 1:10) and then dilute with FP buffer from 500 μM to 20 μM (dilution 1:25). […] Transfer 10 μl of serial diluted unlabeled peptides to each well which is filled with 20 μl of 300 nM of protein. • 7. Add 10 μl of 10 nM (4×) of FAM labeled peptide into each well and incubate for 3 hr to read.

Caspase 3 = Caspase 3 detection assay in SJSA1 cells; format: cell-based; conditions: 48 h, Caspase 3 activation over DMSO-treated cells; for caspase 0.3 uM: 0.3 uM peptide; for caspase 3 uM: 3 uM peptide; for caspase 10 uM: 10 uM peptide; for caspase 30 uM: 30 uM peptide
SJSA-1 cells = assay: Cell lysis by peptidomimetic macrocycles (LDH release); format: cell-based; conditions: 1 h at 37C

SMILES	IC50 (MDM2) [nM]	Ki (MDM2) [nM]	IC50 (MDMX) [nM]	Ki (MDMX) [nM]	caspase 0.3 uM (Caspase 3)	caspase 3 uM (Caspase 3)	caspase 10 uM (Caspase 3)	caspase 30 uM (Caspase 3)	6.25 uM % Lysed cells (1 h LDH) (SJSA-1 cells) [%]	25 uM % Lysed cells (1 h LDH) (SJSA-1 cells) [%]	50 uM % Lysed cells (1 h LDH) (SJSA-1 cells) [%]
CC(=O)N[C@@H](CCC(=O)O)C(=O)N[C@H](C(=O)N[C@@H](Cc1ccccc1)C(=O)N[C@]1(C)CCCCCCC=CCCC[C@@](C)(C(=O)N[C@@H](CO)C(=O)N[C@@H](C)C(=O)N[C@@H](C)C(N)=O)NC(=O)[C@H](CC(C)C)NC(=O)[C@H](CCC(N)=O)NC(=O)[C@H](C)NC(=O)[C@H](Cc2c[nH]c3ccccc23)NC(=O)[C@H](Cc2ccc(O)cc2)NC(=O)[C@H](CCC(=O)O)NC1=O)[C@@H](C)O [compound 161] (Ac-ETF[R8]EYWAQL[S5]SAA-NH2; staple 4-11)	< 10	< 10	100 to 1000	10 to 100	2	8	14	22	1	−1	0
CC(=O)N[C@@H](CC(C)C)C(=O)N[C@H](C(=O)N[C@@H](Cc1ccc(F)c(F)c1)C(=O)N[C@]1(C)CCCCCCC=CCCC[C@@](C)(C(=O)N[C@@H](CO)C(=O)N[C@@H](C)C(=O)N[C@@H](C)C(N)=O)NC(=O)[C@H](CC(C)C)NC(=O)[C@H](CCC(N)=O)NC(=O)[C@H](C)NC(=O)[C@H](Cc2c[nH]c3ccccc23)NC(=O)[C@H](Cc2ccc(O)cc2)NC(=O)[C@H](CCC(=O)O)NC1=O)[C@@H](C)O (single isomer, unassigned) [compound 158]	< 10	< 10	100 to 1000	10 to 100	1		5	16.33	0	−2	
CC[C@H](C)[C@H](NC(=O)[C@H](C)NC(=O)[C@H](C)NC(=O)[C@]1(C)CCCC=CCCCCCC[C@@](C)(NC(=O)[C@H](Cc2ccccc2)NC(=O)[C@@H](NC(=O)[C@H](CC(C)C)NC(C)=O)[C@@H](C)O)C(=O)N[C@@H](CCC(=O)O)C(=O)N[C@@H](Cc2ccc(O)cc2)C(=O)N[C@@H](Cc2c[nH]c3ccccc23)C(=O)N[C@@H](C)C(=O)N[C@@H](CCC(N)=O)C(=O)N[C@@H](CC2CCC2)C(=O)N1)C(=O)N[C@H](C)C(N)=O [compound 247] (Ac-LTF[R8]EYWAQ[Cba][S5]AAI[dA]-NH2; staple 4-11)	10 to 100	< 10	10 to 100	10 to 100	1	3	11	24	0	0	4
CC[C@H](C)[C@H](NC(=O)[C@H](C)NC(=O)[C@H](C)NC(=O)[C@]1(C)CCCC=CCCCCCC[C@@](C)(NC(=O)[C@H](Cc2ccccc2)NC(=O)[C@@H](NC(=O)[C@H](CC(C)C)NC(C)=O)[C@@H](C)O)C(=O)N[C@@H](C)C(=O)N[C@@H](Cc2ccc(O)cc2)C(=O)N[C@@H](Cc2c[nH]c3ccccc23)C(=O)N[C@@H](C)C(=O)N[C@@H](CCC(N)=O)C(=O)N[C@@H](CC(C)C)C(=O)N1)C(=O)N[C@@H](C)C(N)=O (single isomer, unassigned) [compound 65]	10 to 100	< 10	100 to 1000	10 to 100	1	6	28	34	0	0	2
CC(=O)N[C@@H](CCC(=O)O)C(=O)N[C@H](C(=O)N[C@@H](Cc1ccccc1)C(=O)N[C@]1(C)CCCCCCC=CCCC[C@@](C)(C(=O)N[C@@H](CO)C(=O)N[C@H](C(=O)N[C@@H](C)C(N)=O)C(C)C)NC(=O)[C@H](CC(C)C)NC(=O)[C@H](CCC(N)=O)NC(=O)[C@H](C)NC(=O)[C@H](Cc2c[nH]c3ccccc23)NC(=O)[C@H](Cc2ccc(O)cc2)NC(=O)[C@H](C(C)C)NC1=O)[C@@H](C)O [compound 126] (Ac-ETF[R8]VYWAQL[S5]SVA-NH2; staple 4-11)	< 10	< 10	100 to 1000	10 to 100	1	1	6	30	1	1	1
CC(=O)N[C@@H](CC(C)C)C(=O)N[C@H](C(=O)N[C@@H](Cc1ccccc1)C(=O)N[C@]1(C)CCCCCCC=CCCC[C@@](C)(C(=O)N[C@@H](CO)C(=O)N[C@@H](C)C(=O)N[C@@H](CC(C)C)C(N)=O)NC(=O)[C@H](CC(C)C)NC(=O)[C@H](CCC(N)=O)NC(=O)[C@H](C)NC(=O)[C@H](Cc2c[nH]c3ccccc23)NC(=O)[C@H](Cc2ccc(O)cc2)NC(=O)[C@H](C)NC1=O)[C@@H](C)O [compound 4] (Ac-LTF[R8]AYWAQL[S5]SAL-NH2; staple 4-11)	10 to 100	< 10	100 to 1000	10 to 100		9	37	35	−2	1	2
CC[C@H](C)[C@H](NC(=O)[C@H](C)NC(=O)[C@H](C)NC(=O)[C@]1(C)CCCC=CCCCCCC[C@@](C)(NC(=O)[C@H](Cc2ccccc2)NC(=O)[C@@H](NC(=O)[C@H](CCC(=O)O)NC(C)=O)[C@@H](C)O)C(=O)N[C@@H](CCC(=O)O)C(=O)N[C@@H](Cc2c[nH]cn2)C(=O)N[C@@H](Cc2c[nH]c3ccccc23)C(=O)N[C@@H](C)C(=O)N[C@@H](CCC(N)=O)C(=O)N[C@@H](CC(C)C)C(=O)N1)C(=O)N[C@H](C)C(N)=O (single isomer, unassigned) [compound 175]	< 10	< 10	100 to 1000	10 to 100	1	5	12	21	3	1	0
CC(=O)N[C@@H](CC(C)C)C(=O)N[C@H](C(=O)N[C@@H](Cc1ccccc1)C(=O)N[C@]1(C)CCCCCCC=CCCC[C@@](C)(C(=O)N[C@@H](CO)C(=O)N[C@@H](C)C(=O)N[C@@H](CO)C(N)=O)NC(=O)[C@H](CC(C)C)NC(=O)[C@H](CCC(N)=O)NC(=O)[C@H](C)NC(=O)[C@H](Cc2c[nH]c3ccccc23)NC(=O)[C@H](Cc2ccc(O)cc2)NC(=O)[C@H](C)NC1=O)[C@@H](C)O [compound 122] (Ac-LTF[R8]AYWAQL[S5]SAS-NH2; staple 4-11)	< 10	< 10	100 to 1000	10 to 100	1	2	15	30	1	0	6
CC(=O)N[C@@H](CC(C)C)C(=O)N[C@H](C(=O)N[C@@H](Cc1ccccc1)C(=O)N[C@]1(C)CCCCCCC=CCCC[C@@](C)(C(=O)N[C@@H](C)C(=O)N[C@@H](Cc2c[nH]cn2)C(=O)N[C@@H](Cc2ccccc2)C(=O)N[C@@H](C)C(N)=O)NC(=O)[C@H](CC(C)C)NC(=O)[C@H](C)NC(=O)[C@H](C)NC(=O)[C@H](Cc2c[nH]c3ccccc23)NC(=O)[C@H](Cc2ccc(O)cc2)NC(=O)[C@H](C)NC1=O)[C@@H](C)O [compound 204] (Ac-LTF[R8]AYWAAL[S5]AHFA-NH2; staple 4-11)	10 to 100	< 10	100 to 1000	10 to 100	1	4	10	10	4	2	0
